Data published in patent publication US20260240876A1, “TREATMENT OF SLEEP APNEA WITH CBD” (Harmony Biosciences Management, Inc., priority 2021, published 2026).

Tested on: child and adolescent patients with DEEs
Experiment: BELIEVE: Sleep Disturbance Scale for Children (SDSC)
Assay type: in vivo, human
Conditions: Week 26, negative = improvement, vs revised Baseline mean of completers
Procedure: This was a sequential, multi-stage, open-label, multi-national, multiple-center, multiple-dose study to assess the long-term safety, tolerability, and efficacy of ZYN002 (transdermal CBD gel) in child and adolescent epilepsy patients from 3 to 18 years of age having seizures associated with developmental and epileptic encephalopathies (DEE) according to the International League Against Epilepsy (ILEA) classification (Scheffer et al. 2017). The study was conducted to evaluate efficacy of ZYN002 in DEE patients with ASD. The objective of the study also included evaluating the effects of ZYN002 transdermal CBD gel on QoL, sleep, and caregiver qualitative assessment in child and adolescent patients with DEEs.
• Change from baseline to the end of Period A in the SDSC

Q: What does the source list for `C=C(C)C1CCC(C)=CC1c1c(O)cc(CCCCC)cc1O` (stereo not shown) [CBD, 2-[3-methyl-6-(1-methylethenyl)-2-cyclohexen-1-yl]-5-pentyl-1,3-benzenediol]?
A: SDSC Sleep Breathing Disorders (SBD), Change from Baseline (All Patients (DEE)): no significant change; SDSC Sleep Breathing Disorders (SBD), Change from Baseline (DEE Patients >70 Total Score): no significant change; SDSC Sleep Breathing Disorders (SBD), Change from Baseline (DEE-ASD Patients >70 Total Score): −6.7; SDSC Sleep Breathing Disorders (SBD), Change from Baseline (DEE-ASD Patients): −3.9
